According to publication PMC7181641, “Aspartate aminotransferase Rv3722c governs aspartate-dependent nitrogen metabolism in Mycobacterium tuberculosis” (Nature Communications, 2020):

Experiments:
Rv3722c [1] = target: T1, Rv3722c (Mycobacterium tuberculosis, UniProt O69689)
Rv3722c [2] = target: T1, Rv3722c; remark: listed apart in the source

T1 sequence (O69689 whole entry): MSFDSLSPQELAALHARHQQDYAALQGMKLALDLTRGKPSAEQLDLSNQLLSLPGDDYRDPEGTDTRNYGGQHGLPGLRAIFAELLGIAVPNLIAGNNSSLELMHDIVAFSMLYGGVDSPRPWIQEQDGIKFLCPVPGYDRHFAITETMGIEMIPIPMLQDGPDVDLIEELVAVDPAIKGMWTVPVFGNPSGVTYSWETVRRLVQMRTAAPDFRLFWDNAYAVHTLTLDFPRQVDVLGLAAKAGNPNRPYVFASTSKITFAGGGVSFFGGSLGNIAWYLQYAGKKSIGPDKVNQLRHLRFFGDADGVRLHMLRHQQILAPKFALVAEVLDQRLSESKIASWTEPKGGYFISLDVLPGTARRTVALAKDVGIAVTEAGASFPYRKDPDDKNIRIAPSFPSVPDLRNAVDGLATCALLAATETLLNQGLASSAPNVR

Row | SMILES | X-ray crystal structure, 2.6 Å (Rv3722c [1]) | X-ray crystal structure, 2.23 Å (Rv3722c [2])
1 | N[C@@H](CCC(=O)O)C(=O)O [Glu] | clear electron density of the amino acid in the active site | 
2 | O=C(O)c1cc(O)c2ccccc2n1 [kynurenic acid] |  | or the final keto acid product kynurenic acid (Kyna)
3 | Nc1ccccc1C(=O)C[C@H](N)C(=O)O [kynurenine] |  | chains were bound to either the external aldimine intermediate PLP-kynurenine (PLP-Kyn)
4 | Cc1ncc(COP(=O)(O)O)c(C=O)c1O [pyridoxal phosphate] |  | the external aldimine intermediate PLP-kynurenine (PLP-Kyn)
